Reference: PubChem BioAssay (NCI)
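96-well plates; 48 h exposure; 5 concentrations. Endpoints by linear interpolation between flanking doses. Not reached: highest tested concentration assigned. GI50 marks 50% less growth. Definition used: TGI = concentration required for complete inhibition of growth.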

Experiments:
Assay in all cases: inhibition of tumour cell growth, NCI panel, 48 h
ACHN renal = tested on: ACHN renal
CAKI-1 renal = tested on: CAKI-1 renal
DLD-1 colon = tested on: DLD-1 colon
K-562 leukemia = tested on: K-562 leukemia
KM20L2 colon = tested on: KM20L2 colon
M19-MEL melanoma = tested on: M19-MEL melanoma
OVCAR-5 ovarian = tested on: OVCAR-5 ovarian
SF-295 CNS = tested on: SF-295 CNS
TK-10 renal = tested on: TK-10 renal
XF 498 CNS = tested on: XF 498 CNS
T-47D breast = tested on: T-47D breast

Row | SMILES | TGI (ACHN renal) | TGI (CAKI-1 renal) | TGI (DLD-1 colon) | TGI (K-562 leukemia) | TGI (KM20L2 colon) | TGI (M19-MEL melanoma) | TGI (OVCAR-5 ovarian) | TGI (SF-295 CNS) | TGI (TK-10 renal) | TGI (XF 498 CNS) | GI50 (ACHN renal) | GI50 (CAKI-1 renal) | GI50 (K-562 leukemia) | GI50 (OVCAR-5 ovarian) | GI50 (SF-295 CNS) | GI50 (T-47D breast) | TGI (T-47D breast) | GI50 (TK-10 renal) | GI50 (DLD-1 colon) | GI50 (KM20L2 colon)
1 | CC(=O)NNc1nc(C)c(C(/C=C/c2ccc(Cl)cc2)=N/NC(=S)NN)s1 | > 100 µM | > 100 µM | > 100 µM | > 100 µM | > 100 µM | > 100 µM | > 100 µM | > 100 µM | > 100 µM | > 100 µM |  |  |  |  |  |  |  |  |  | 
2 | Cc1[nH]ccc2cc3nc4ccccc4c3cc12 | 10.6 µM | 10.8 µM |  | 10.4 µM |  |  | 11.9 µM | 6.79 µM | 12.9 µM |  | 0.963 µM | 2.38 µM | 2.8 µM | 3.35 µM | 1.96 µM | 3.62 µM | 18.9 µM | 4.47 µM |  | 
3 | COc1cc(C(=C2SCCS2)c2nccc3cc(OC)c(OC)cc23)c([N+](=O)[O-])cc1OC | > 100 µM |  | > 100 µM | > 100 µM | > 100 µM | > 100 µM | > 100 µM | > 100 µM | > 100 µM | > 100 µM |  |  |  |  |  |  |  |  |  | 
4 | Cc1cc(S(=O)(=O)Nc2nc3ccsc3c(=O)n2Cc2ccccc2)c(S)cc1Cl | > 100 µM | > 100 µM |  | > 100 µM |  |  | 97.5 µM | 98.7 µM | 91.1 µM |  | 57.5 µM | 41.2 µM | 67.9 µM | 32.9 µM | 26.8 µM | 52.4 µM | > 100 µM | 29.7 µM |  | 
5 | CSc1ccc(C(=O)/C=C/c2ccc(F)cc2)cc1 | > 100 µM | > 100 µM |  | 65.3 µM |  |  | > 100 µM | > 100 µM | > 100 µM |  | > 100 µM | > 100 µM | 25.9 µM | 99.6 µM | 33.4 µM | 96.4 µM | > 100 µM | 85.3 µM |  | 
6 | Cc1cc(Cl)ccc1Nc1nc(C(F)(F)F)ccc1C(=O)N/N=C/c1ccc(N(C)C)cc1 | > 100 µM | 8.52 µM |  | > 100 µM |  |  | > 100 µM | 4.92 µM | > 100 µM |  | 2.57 µM | 0.404 µM | 1.93 µM | 2.4 µM | 1.42 µM | 1.2 µM | > 100 µM | 1.03 µM |  | 
7 | N#CNc1nc(C(=O)Nc2ccc(Cl)cc2)cc(-c2ccccc2)n1 | > 100 µM | > 100 µM | > 100 µM | > 100 µM | > 100 µM | > 100 µM | > 100 µM | > 100 µM |  | > 100 µM |  |  |  |  |  |  |  |  |  | 
8 | CCc1ccccc1NC(=O)C1=C(C)NC(C)=C(C(=O)Nc2ccccc2CC)C1c1ccc(NC(C)=O)cc1 | > 100 µM | > 100 µM | 87.6 µM | 77.9 µM | 58.8 µM | > 100 µM | > 100 µM | > 100 µM | > 100 µM |  |  |  |  |  |  |  |  |  |  | 
9 | O=C(O)CCc1nc(-c2ccccc2)c(-c2ccccc2)o1 | > 100 µM | > 100 µM |  | > 100 µM |  |  | > 100 µM | > 100 µM | > 100 µM |  |  |  |  |  |  |  | > 100 µM |  |  | 
10 | CC1(C)CC(O)CCCCCCOc2c(CN)cccc2NC(=O)c2nc(cnc2N)-c2ccc(cc2)S1(=O)=O (configuration not stated) | 2.04 µM | 2.6 µM |  | 2.69 µM |  |  | 6.34 µM | 3.02 µM | 3.86 µM |  | 0.0214 µM | 1.15 µM | 0.0538 µM | 2.81 µM | 1.49 µM | 1.67 µM | 4.15 µM | 1.52 µM |  | 
11 | CC(=O)[CH-]C(=O)c1ccccc1.CC(=O)[CH-]C(=O)c1ccccc1.CC[O-].O=C1C=C([O-])C(=O)c2ccccc21.[Ti+4] | > 100 µM | > 100 µM | > 100 µM | > 100 µM | > 100 µM |  | > 100 µM | > 100 µM |  |  | 66.5 µM | > 100 µM | > 100 µM | 95.3 µM | 37.9 µM |  |  |  | > 100 µM | 42.4 µM
12 | COc1ccc(-c2cc3nccn3c(Nc3ncccc3C(N)=O)n2)cc1OC | > 100 µM | > 100 µM |  | > 100 µM |  |  | > 100 µM | > 100 µM | > 29.8 µM |  | 0.445 µM | 0.274 µM | 4.59 µM | > 100 µM | > 100 µM | > 100 µM | > 100 µM | 0.391 µM |  | 
13 | CN(/C(=N\O)c1ccccc1)c1ccccc1 |  | > 100 µM | > 100 µM |  | 41.5 µM | > 100 µM | > 100 µM | 43.4 µM |  |  |  |  |  |  |  |  |  |  |  | 
14 | c1cc(C2N3CCCN2CC3)ccn1 (configuration not stated) | > 100 µM | > 100 µM |  | > 100 µM |  |  | > 100 µM | > 100 µM | > 100 µM |  |  |  |  |  |  |  | > 100 µM |  |  | 
15 | O/N=C1/C(=C/c2ccccc2)CCCC1C(NO)c1ccccc1 (configuration not stated) | > 100 µM |  |  | > 100 µM | > 100 µM | > 100 µM | > 100 µM | > 100 µM | > 100 µM | 99.2 µM |  |  |  |  |  |  |  |  |  | 
16 | COc1ccc(Cn2cc3c(c2-c2ccccc2)CCc2cncnc2-3)cc1 | 35.8 µM | 17.5 µM |  | 11.3 µM |  |  | 37.7 µM | 17.8 µM | 26.6 µM |  | 11.3 µM | 3.55 µM | 2.75 µM | 18.4 µM | 4.02 µM | 3.47 µM | 27 µM | 8.09 µM |  | 
17 | COc1ccc(NCc2c(O)ccc3ccccc23)cc1 | 31.2 µM | 67.1 µM |  | 38.3 µM |  |  | 49.3 µM | > 100 µM | 38.6 µM |  |  |  |  |  |  |  | 55.1 µM |  |  | 
18 | COc1ccc(Cn2c3c(c4c(O)cccc42)C(=O)c2ccccc2-3)cc1 | 16.6 µM | 29.6 µM |  | > 100 µM |  |  | 21.6 µM | 26.2 µM | 18.3 µM |  | 5.14 µM | 14.9 µM | 24.3 µM | 10 µM | 12.6 µM | 11 µM | 37.9 µM | 4.36 µM |  | 
19 | CCCCCCCCCCC(CN(CC)CC)C(O)c1ccccc1 (configuration not stated) | 3.07 µM | 2.92 µM |  | 4.67 µM |  |  | 3.49 µM | 3.48 µM | 3.22 µM |  | 1.61 µM | 1.51 µM | 2.03 µM | 1.78 µM | 1.84 µM | 1.84 µM | 4.31 µM | 1.65 µM |  | 
